Results reported in patent publication US12435092B2, “Substituted imidazo[1,2-A]quinazolines as inhibitors of PARG” (858 Therapeutics, Inc., priority 2022, dated 2025).

Biological target: T1, cellular PARG (Homo sapiens, UniProt Q86W56)
T1 construct: endogenous in cells; host or cells: HeLa
Assay: Nuclear PAR accumulation assay (immunofluorescence high-content imaging)
Format: cell-based
Details: HeLa cells, 1 hour compound treatment then MMS 50 μg/mL for an additional hour
Procedure, shortened: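 HeLa cells pretreated 1 h at 37 °C with compound, then 1 h with 50 μg/mL MMS (final), methanol-fixed and immunostained for PAR with DAPI nuclear counterstain. Nuclear PAR intensity and percent PAR-positive cells quantified by high-content imaging (≥1,000 cells/well). IC50 by four-parameter logistic fit, normalized to 0.1% DMSO and reference-compound controls.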

T1 sequence (Q86W56 whole entry): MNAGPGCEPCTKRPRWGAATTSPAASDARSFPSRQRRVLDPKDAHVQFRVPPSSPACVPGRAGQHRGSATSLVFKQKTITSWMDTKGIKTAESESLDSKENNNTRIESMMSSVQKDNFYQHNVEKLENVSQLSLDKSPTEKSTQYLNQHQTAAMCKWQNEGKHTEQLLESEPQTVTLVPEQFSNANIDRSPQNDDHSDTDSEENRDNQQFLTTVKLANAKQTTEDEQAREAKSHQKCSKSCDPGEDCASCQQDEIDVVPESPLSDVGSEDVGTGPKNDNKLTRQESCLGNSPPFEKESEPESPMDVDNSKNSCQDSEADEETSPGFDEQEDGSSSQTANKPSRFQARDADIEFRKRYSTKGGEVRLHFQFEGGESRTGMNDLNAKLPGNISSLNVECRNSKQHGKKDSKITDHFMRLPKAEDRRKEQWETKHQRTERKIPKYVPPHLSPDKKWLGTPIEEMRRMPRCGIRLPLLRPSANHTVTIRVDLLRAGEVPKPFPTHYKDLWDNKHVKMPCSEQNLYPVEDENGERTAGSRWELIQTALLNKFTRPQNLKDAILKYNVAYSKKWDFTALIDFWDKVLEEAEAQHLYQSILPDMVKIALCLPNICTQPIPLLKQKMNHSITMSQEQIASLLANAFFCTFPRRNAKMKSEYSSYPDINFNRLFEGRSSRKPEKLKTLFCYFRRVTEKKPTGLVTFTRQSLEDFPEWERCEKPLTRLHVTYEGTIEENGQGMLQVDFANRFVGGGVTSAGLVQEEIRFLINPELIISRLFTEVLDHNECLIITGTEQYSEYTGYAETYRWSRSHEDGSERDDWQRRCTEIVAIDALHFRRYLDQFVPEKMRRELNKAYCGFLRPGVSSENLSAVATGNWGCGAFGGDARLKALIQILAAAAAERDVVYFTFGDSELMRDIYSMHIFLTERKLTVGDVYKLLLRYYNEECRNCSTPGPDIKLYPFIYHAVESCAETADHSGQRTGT

| Structure (SMILES) | IC50 [nM] |
| --- | --- |
| [2H]C([2H])(c1cnn(C)c1)N1C(=O)c2cc(S(=O)(=O)NC3(C)CC3)cc(C)c2N2C1=NC[C@H]2C [Example 132, (R)-1,9-dimethyl-4-((1-methyl-1H-pyrazol-4-yl)methyl-d2)-N-(1-methylcyclopropyl)-5-oxo-1,2,4,5-tetrahydroimidazo[1,2-a]quinazoline-7-sulfonamide] | ≤ 100 |
| C[C@@H]1CN=C2N(Cc3cnn(C)c3)C(=O)c3cc(S(=O)(=O)NC4(C)CC4)cc(C4=CCOCC4)c3N21 [Example 133, (R)-9-(3,6-dihydro-2H-pyran-4-yl)-1-methyl-4-((1-methyl-1H-pyrazol-4-yl)methyl)-N-(1-methylcyclopropyl)-5-oxo-1,2,4,5-tetrahydroimidazo[1,2-a]quinazoline-7-sulfonamide] | ≤ 100 |
| [2H]C([2H])(c1cnn(C)c1)N1C(=O)c2cc(S(=O)(=O)NC3(C)CC3)cc(C(F)(F)F)c2N2C1=NC[C@H]2C [Example 134, (R)-1-methyl-4-((1-methyl-1H-pyrazol-4-yl)methyl-d2)-N-(1-methylcyclopropyl)-5-oxo-9-(trifluoromethyl)-1,2,4,5-tetrahydroimidazo[1,2-a]quinazoline-7-sulfonamide] | ≤ 100 |
| C[C@@H]1CN=C2N(Cc3cnn(C)c3)C(=O)c3cc(S(=O)(=O)NC4(C)CC4)cc(-c4ccc(F)nc4)c3N21 [Example 135, (R)-9-(6-fluoropyridin-3-yl)-1-methyl-4-((1-methyl-1H-pyrazol-4-yl)methyl)-N-(1-methylcyclopropyl)-5-oxo-1,2,4,5-tetrahydroimidazo[1,2-a]quinazoline-7-sulfonamide] | ≤ 100 |
| C[C@@H]1CN=C2N(Cc3cnn(C)c3)C(=O)c3cc(S(=O)(=O)NC4(C)CC4)cc(-c4ccc(F)cc4)c3N21 [Example 136, (R)-9-(4-fluorophenyl)-1-methyl-4-((1-methyl-1H-pyrazol-4-yl)methyl)-N-(1-methylcyclopropyl)-5-oxo-1,2,4,5-tetrahydroimidazo[1,2-a]quinazoline-7-sulfonamide] | ≤ 100 |
| [2H]C([2H])(c1cnn(C)c1)N1C(=O)c2cc(S(=O)(=O)NC3(C)CC3)cc(Br)c2N2C1=NC[C@H]2C [Example 137, (R)-9-bromo-1-methyl-4-((1-methyl-1H-pyrazol-4-yl)methyl-d2)-N-(1-methylcyclopropyl)-5-oxo-1,2,4,5-tetrahydroimidazo[1,2-a]quinazoline-7-sulfonamide] | ≤ 100 |
| C[C@@H]1CN=C2N(Cc3cnn(C)c3)C(=O)c3cc(S(=O)(=O)NC4(C)CC4)cc(C#N)c3N21 [Example 138, (R)-9-cyano-1-methyl-4-((1-methyl-1H-pyrazol-4-yl)methyl)-N-(1-methylcyclopropyl)-5-oxo-1,2,4,5-tetrahydroimidazo[1,2-a]quinazoline-7-sulfonamide] | 100 to 1000 |
